According to publication PMC4324634, “Bioprospecting the American Alligator (Alligator mississippiensis) Host Defense Peptidome” (PLoS ONE, 2015):
Where two headings read alike, the source gives them in different places. Where no end group is shown, it is not given here.

Columns and labels:
[1] = tested on: Pseudomonas aeruginosa (ATCC 9027)
Method: (§1) The third step in the CAMP-discovery process is the evaluation of the antimicrobial effectiveness of the newly identified peptides. The eight synthetic peptides were tested against a panel of Gram-positive and Gram-negative bacteria. These bacteria include Bacillus cereus, Staphylococcus aureus, Escherichia coli, and Pseudomonas aeruginosa. […] When incubated with live metabolically-active cells, the non-fluorescent blue dye resazurin is converted to the highly fluorescent pink resorufin, as a result of reduction by the cells. While bacteria can reduce resazurin via multiple metabolic processes, the rate of conversion and the corresponding increase in fluorescence are directly proportional to the number of living cells in the sample [19–21, 25]. Thus, fluorometric detection of the rate of resazurin conversion to resorufin at 530ex/590em allows for quantification of bacterial survival following exposure to antibacterial compounds, such as CAMPs.
(§2) Escherichia coli (ATCC 25922), Bacillus cereus (ATCC 11778), Pseudomonas aeruginosa (ATCC 9027), and Staphylococcus aureus (ATCC 25923) used in these studies were purchased from the American Type Culture Collection (Manassas, VA). Bacteria were grown following ATCC recommended protocols for each strain and frozen aliquots were prepared in 20% glycerol and stored at -80°C for further use.
(§3) Frozen enumerated bacterial aliquots were thawed on ice and mixed. For each strain, bacteria are diluted to 2 × 10^6 CFU/mL in sterile 10 mM sodium phosphate (pH 7.4) and added in 50 µL aliquots to the wells of a 96-well black microtiter plate (Greiner Bio-One 655201) containing 50 µL volumes of serially diluted CAMP, dissolved in the same phosphate buffer. Control wells contain bacteria with no peptide. The microtiter plate was incubated for 3 hours at 30°C (B. cereus) or 37°C for other strains. After three hours, 100 µL of PBS solution with dissolved resazurin and MHB was added to each well. The amount of resazurin and MHB that was added is bacterial strain dependent, with the final resazurin (µM)/ MHB (wt/vol) concentrations being 100 µM/ 0.2% (wt/vol) for E. coli, 12.5 µM/ 0.05% (wt/vol) for B. cereus, 25 µM/ 2.2% (wt/vol) for P. aerugoinsa, and 50 µM/ 2.2% (wt/vol) for S. aureus. The metabolic conversion of resazurin to resorufin is bacterial strain dependent and requires concentrations optimized for each species to achieve a high-throughput assessment. Following addition of resazurin/MHB buffer, the plate was immediately placed in either a SpectraMax Gemini EM plate-reading fluorimeter (E. coli and B. cereus) or a TeCan Safire 2 fluorimeter (S. aureus and P. aeruginosa) for incubation overnight at either 30°C (B. cereus) or 37°C (other strains) while monitoring fluorescence for each well.
(§4) Fluorescence data was collected from each well during the monitoring period using equations compiled by microplate data software (SoftMax Pro 4.5 or Magellen 6). Onset time of half maximal fluorescence (T0.5) was used for quantifying bacterial concentrations. Standard curves were generated in preliminary experiments using serially diluted bacterial suspensions (~10^6 CFU/mL- 10^3 CFU/mL) without CAMPs. […] Correlating bacterial CFU values for wells containing peptide with control wells containing no CAMPs it is possible to determine bacterial survival for wells containing CAMPs.

[2] = tested on: Bacillus cereus (ATCC 11778)
Method: as §1, §2, §3, §4

[3] = tested on: Escherichia coli (ATCC 25922)
Method: as §1, §2, §3, §4

[4] = tested on: Staphylococcus aureus (ATCC 25923)
Method: as §1, §2, §3, §4

In the case of FSTKTRNWFSEHFKKVKEKLKDTFA [APOC1_64–88], the EC50 ([1]; ATCC 9027, 3 h, pH 7.4) is reported as 1410 nM, the EC50 ([2]; ATCC 11778, 3 h, pH 7.4) is reported as 245 nM and the EC50 ([3]; ATCC 25922, 3 h, pH 7.4) is reported as 192 nM. It also gave an EC50 ([4]; ATCC 25923, 3 h, pH 7.4) of 9660 nM.
With KKTSMKIIPFTRL [FGG401–413] the EC50 ([1]; ATCC 9027, 3 h, pH 7.4) was 11100 nM, the EC50 ([2]; ATCC 11778, 3 h, pH 7.4) was 18700 nM and the EC50 ([3]; ATCC 25922, 3 h, pH 7.4) was 245 nM. For the same molecule, the EC50 ([4]; ATCC 25923, 3 h, pH 7.4) was 31800 nM.
For VERIPLVRFKSIKKQLHERGDL [NOTS17–38], the EC50 ([4]; ATCC 25923, 3 h, pH 7.4) was 198000 nM.
In the case of KTRNWFSEHFKKVKEKLKDTFA [APOC1_67–88], the EC50 ([1]; ATCC 9027, 3 h, pH 7.4) is reported as 948 nM, the EC50 ([2]; ATCC 11778, 3 h, pH 7.4) is reported as 210 nM and the EC50 ([3]; ATCC 25922, 3 h, pH 7.4) is reported as 151 nM. The EC50 ([4]; ATCC 25923, 3 h, pH 7.4) was 7080 nM.
CC[C@H](C)[C@H](NC(=O)[C@H](CCCCN)NC(=O)[C@H](CCC(=O)O)NC(=O)[C@H](CCCCN)NC(=O)[C@H](CO)NC(=O)[C@H](CCCCN)NC(=O)[C@H](CCCNC(=N)N)NC(=O)[C@H](Cc1ccccc1)NC(=O)[C@H](Cc1ccccc1)NC(=O)[C@H](CC(=O)O)NC(=O)CNC(=O)[C@H](CC(C)C)NC(=O)[C@@H](N)CC(C)C)C(=O)NCC(=O)N[C@@H](CCCCN)C(=O)N[C@@H](CCC(=O)O)C(=O)N[C@@H](Cc1ccccc1)C(=O)N[C@@H](CCCCN)C(=O)N[C@@H](CCCNC(=N)N)C(=O)N[C@H](C(=O)N[C@H](C(=O)N[C@@H](CCC(N)=O)C(=O)N[C@@H](CCCNC(=N)N)C(=O)N[C@H](C(=O)N[C@@H](CCCCN)C(=O)N[C@@H](CC(=O)O)C(=O)N[C@@H](Cc1ccccc1)C(=O)N[C@@H](CC(C)C)C(=O)N[C@@H](CCCNC(=N)N)C(=O)N[C@@H](CC(N)=O)C(=O)N[C@@H](CC(C)C)C(=O)N[C@H](C(=O)N1CCC[C@H]1C(=O)N[C@@H](CCCNC(=N)N)C(=O)N[C@H](C(=O)N[C@@H](CCC(=O)O)C(=O)N[C@@H](CO)C(=O)O)[C@@H](C)O)C(C)C)[C@@H](C)CC)C(C)C)[C@@H](C)CC [LL-37, reference compound] was tested, and the EC50 ([1]; read-out: P. aeruginosa EC50, P. aeruginosa ATCC 9027, 2 × 10^6 CFU/mL stock mixed 1:1 with peptide in 10 mM sodium phosphate pH 7.4, 3 h at 37°C, resazurin fluorescence read-out (T0.5), triplicate, variable-slope sigmoidal fit) was 525 nM, the EC50 ([2]; read-out: B. cereus EC50, B. cereus ATCC 11778, 2 × 10^6 CFU/mL stock mixed 1:1 with peptide in 10 mM sodium phosphate pH 7.4, 3 h at 30°C, resazurin fluorescence read-out (T0.5), triplicate, variable-slope sigmoidal fit) was 28.7 nM and the EC50 ([3]; read-out: E. coli EC50, E. coli ATCC 25922, 2 × 10^6 CFU/mL stock mixed 1:1 with peptide in 10 mM sodium phosphate pH 7.4, 3 h at 37°C, resazurin fluorescence read-out (T0.5), triplicate, variable-slope sigmoidal fit) was 8.21 nM. For the same molecule, the EC50 ([4]; read-out: S. aureus EC50, S. aureus ATCC 25923, 2 × 10^6 CFU/mL stock mixed 1:1 with peptide in 10 mM sodium phosphate pH 7.4, 3 h at 37°C, resazurin fluorescence read-out (T0.5), triplicate, variable-slope sigmoidal fit) was 552 nM.
In the case of YSLKKTSMKIIPFTRL [FGG398–413], the EC50 ([1]; ATCC 9027, 3 h, pH 7.4) is reported as 7020 nM, the EC50 ([2]; ATCC 11778, 3 h, pH 7.4) is reported as 9350 nM and the EC50 ([3]; ATCC 25922, 3 h, pH 7.4) is reported as 332 nM. It also gave an EC50 ([4]; ATCC 25923, 3 h, pH 7.4) of 2840 nM.
With PPGASPRKKPRKQ [ASAP130LP] the EC50 ([4]; ATCC 25923, 3 h, pH 7.4) was 101000 nM.
